According to patent US20120283175A1, “ANTIBACTERIAL COMPOSITIONS” (Achaogen, Inc., priority 2009, published 2012):
In brackets after ≈: the same amount, converted by molar mass. Entries after “also recorded” stand apart in the source; their conditions may differ. Like-named read-outs stand apart in the source and are kept apart here.

How the values were obtained:
Klebsiella pneumoniae = test: Checkerboard synergy assay with LpxCi-4; format: cell-based; conditions: combination with LpxCi-4
From the text: (§1) One classic method for assessing synergy, referred to as the checkerboard assay, is used to predict the efficacy of antibacterial agents, and is described by Scribner et. al., (Antimicrobial Agents and Chemotherapy 21(6):939-943 (1982)) and in Goodman & Gilman (The Pharmacological Basis of Therapeutics, Sixth Edition, pp. 1097-1098 (1980)). The checkerboard assay involves serial two-fold dilutions of the antibiotics individually and in combination in broth, which is then inoculated with the microorganism to be tested. After incubation, the minimum inhibitory concentration (MIC) of each drug used individually and in combination is determined (N.B., the MIC is the lowest concentration of the drug that inhibits growth in the medium). Synergism is indicated by a decrease in the MIC of each drug when used in combination. Antagonism is indicated by an increase in the MIC of either or both drugs when used in combination. Alternate methods of assessing synergy are reviewed in Greco, et al., Pharmacological Reviews 47(2):[…] (1995), incorporated herein by reference in its entirety.
(§2) Partial or full inhibition of LpxC should compromise the outer membrane and thus allow these synergizing agents to enter the cells and exert an antibacterial effect at concentrations where cells untreated with an LpxC inhibitor are unaffected. As a first step, checkerboard synergy assays for a variety of antibacterial agents were perform with several LpxC inhibitors, on several species of gram negative bacteria.
(§3) Bacterial isolates were cultivated from −70° C. frozen stocks of the indicated strains by overnight passages at 35° C. in ambient air on Mueller-Hinton agar (Beckton Dickinson, Franklin Lakes, N.J.). Minimum Inhibitory Concentrations (MICs) were determined by the broth microdilution method in accordance with the Clinical and Laboratory Standards Institute (CLSI) guidelines. In brief, organism suspensions were adjusted to a 0.5 McFarland standard to yield a final inoculum between 3×10^5 and 7×10^5 colony-forming units (CFU)/mL. Drug dilutions and inocula were made in sterile, cation adjusted Mueller-Hinton Broth (Beckton Dickinson). An inoculum volume of 100 μL was added to wells containing 100 μL of broth with 2-fold serial dilutions of drug. All inoculated microdilution trays were incubated in ambient air at 35° C. for 18-24 hours. Following incubation, the lowest concentration of the drug that prevented visible growth (OD600 nm <0.05) was recorded as the MIC.
(§4) Standard checkerboard assays were performed with a combination of the indicated agents and LpxCi-4. Table 2 provides the FICI calculated according to standard techniques.

Yersinia enterocolitica = test: Checkerboard synergy assay with LpxCi-4; format: cell-based; conditions: combination with LpxCi-4
From the text: as §1, §2, §3, §4

Pseudomonas aeruginosa = test: Checkerboard synergy assay with LpxCi-4; format: cell-based; conditions: combination with LpxCi-4 (3936), Pseudomonas aeruginosa (ATCC27853 in text)
From the text: as §1, §2, §3, §4

[1] = system: P. aeruginosa (ATCC27853); conditions: for ΔLogCFU vs 24 hr / Log CFU Mean: 24 hr; for Log CFU Mean: n=5
From the text: (§5) The model was run essentially as described by Craig and others (see Gudmundsson et al., “Murine Thigh Infection Model,” Handbook of Animal Models of Infection, M. A. Sande and O. Zak, Eds.; London: Academic Press, 1999, pp 137-144). Briefly, mice were rendered neutropenic prior to infection with 2 doses of cyclophosphamide, and then infected intramuscularly in the thigh with inocula of 10^3-10^5 CFU of either K. pneumo. (ATCC43816) or P. aeruginosa (ATCC27853). Antibiotics or vehicle alone as a negative control were administered twice at 2 hrs and 14 hrs post-infection. The animals were kept neutropenic for the duration of the experiment in order to minimize the effect of white blood cells on the infection such that the microbiological readout measures the in vivo interaction of drugs and bacteria. At 24 hrs post-infection, thighs were harvested, homogenized, and plated to measure the number of CFUs surviving per thigh. Thighs from a subset of animals were also harvested 2 hrs post-infection to record the CFUs present just prior to the first antibiotic treatment (pre-treatment).
This table focuses on the sensitive part of the LpxCi-4 dose response curve (30 mg/kg) by examining the mean log CFU at 0 or 24 hours, as well as the log change in CFU at 24 hours relative to zero hours (“ΔLogCFU vs […]”). Data is given for animals treated with vehicle, LpxCi-4 at 30 mg/kg, a second agent alone at the indicated doses or the combination of LpxCi-4 at 30 mg/kg plus the second agent at the indicated dose. The standard errors for each measurement are also given (n=5 animals/group). By comparing the observed drop in CFU of the combination with the sum of the drop in CFU associated with each of the two agents given separately, one can determine whether the combination is, in fact, synergistic in vivo.

envA1 (D22) E. coli = test: MIC by broth microdilution, isogenic envA1 mutant strain; format: cell-based; conditions: for MIC: Strain envA1 (D21); for Fold decrease in MIC (envA+/envA1): envA+ vs envA1 E. coli
Experimental: as §3

E. coli ATCC25922 = test: MIC by broth microdilution, wild type strain ATCC25922; format: cell-based
Experimental: as §3

envA+ (D21) E. coli = test: MIC by broth microdilution, isogenic envA+ strain; format: cell-based
Experimental: as §3

gram negative bacteria = test: Checkerboard synergy score at fractions of the antibacterial agent's MIC, with LpxCi-1, -2, -3; format: cell-based; design: scale not given here
Experimental: as §2, §3

K. pneumo. (ATCC43816) = test: Neutropenic thigh in vivo efficacy model (mice); design: species or system Klebsiella pneumoniae; conditions: K. pneumo. (ATCC43816); summary
From the text: as §5

[2] = second block of Table 5, mg/kg/day b.i.d.: 3936 30, Eryth. 60, Dapto. 3, Oxacil. 100
[3] = first block of Table 5, mg/kg/day b.i.d.: 3936 30, Rif. 30, Azith. 50

| Compound | FICI index (Klebsiella pneumoniae) | FICI index (Yersinia enterocolitica) | FICI index (Pseudomonas aeruginosa) | MIC (envA1 (D22) E. coli) | MIC (E. coli ATCC25922) | MIC (envA+ (D21) E. coli) | also measured |
| --- | --- | --- | --- | --- | --- | --- | --- |
| CO/N=C(\C(=O)N[C@@H]1C(=O)N2C(C(=O)O)=C(COC(C)=O)CS[C@H]12)c1csc(N)n1 [Cefotaxime, cefotaxime] | 0.5 | ≦0.5 | ≦1.0 | – | – | – | – |
| Nc1nc(/C(=N/O)C(=O)N[C@@H]2C(=O)N3C(C(=O)O)=C(/C=C4\CCN([C@@H]5CCNC5)C4=O)CS[C@H]23)ns1 [Ceftobioprole] | 0.63 | 0.5 | 0.5 | – | – | – | – |
| CCC[C@@H]1C[C@@H](C(=O)N[C@@H]([C@H]2O[C@H](SC)[C@H](O)[C@@H](O)[C@H]2O)[C@H](C)Cl)N(C)C1 [Clindamycin, clindamycin] | ≦0.5 | 0.13 | no effect | – | – | – | – |
| CCCCCCCCCC(=O)N[C@@H](Cc1c[nH]c2ccccc12)C(=O)N[C@H](CC(N)=O)C(=O)N[C@@H](CC(=O)O)C(=O)N[C@@H]1C(=O)NCC(=O)N[C@@H](CCCN)C(=O)N[C@@H](CC(=O)O)C(=O)N[C@H](C)C(=O)N[C@@H](CC(=O)O)C(=O)NCC(=O)N[C@H](CO)C(=O)N[C@@H]([C@H](C)CC(=O)O)C(=O)N[C@@H](CC(=O)c2ccccc2N)C(=O)O[C@@H]1C [Daptomycin, daptomycin] | no measurable synergy; also recorded: no effect | – | no measurable synergy; also recorded: no effect | 32 µg/mL (≈ 19.7 µM) | > 256 µg/mL | 256 µg/mL (≈ 158 µM) | ΔLogCFU vs 24 hr [1, 2]: −1.04; Log CFU Mean [1, 2]: 6.6; Fold decrease in MIC (envA+/envA1) (envA1 (D22) E. coli): 8; MIC shift due to modification of envA (envA1 (D22) E. coli; isogenic envA1 (D22) vs envA+ (D21) E. coli): 8 × |
| C[C@H]1COc2c(N3CCN(C)CC3)c(F)cc3c(=O)c(C(=O)O)cn1c23 [Levofloxacin] | 0.5 | 0.63 | no effect | – | – | – | – |
| CC(=O)NC[C@H]1CN(c2ccc(N3CCOCC3)c(F)c2)C(=O)O1 [Linezolid, linezolid] | ≦0.5 | – | no effect | – | – | – | Synergy Score (gram negative bacteria; with LpxCi-1, antibacterial agent at 1/16 MIC): 0.46; Synergy Score (gram negative bacteria; with LpxCi-1, antibacterial agent at 1/64 MIC): 1.03; Synergy Score (gram negative bacteria; with LpxCi-1, antibacterial agent at ¼ MIC): 0.54; Synergy Score (gram negative bacteria; with LpxCi-2, antibacterial agent at ¼ MIC): 1.25; Synergy Score (gram negative bacteria; with LpxCi-3, antibacterial agent at 1/16 MIC): 1.06; Synergy Score (gram negative bacteria; with LpxCi-3, antibacterial agent at 1/64 MIC): 1.02; Synergy Score (gram negative bacteria; with LpxCi-3, antibacterial agent at ¼ MIC): 0.58 |
| CO[C@H]1/C=C/O[C@@]2(C)Oc3c(C)c(O)c4c(O)c(c(/C=N/N5CCN(C)CC5)c(O)c4c3C2=O)NC(=O)/C(C)=C\C=C\[C@H](C)[C@H](O)[C@@H](C)[C@@H](O)[C@@H](C)[C@H](OC(C)=O)[C@@H]1C [Rifampin, rifampin] | ≦0.08 | 0.19 | ≦1.0 | 0.25 µg/mL (≈ 0.304 µM) | 16 µg/mL (≈ 19.4 µM) | 16 µg/mL (≈ 19.4 µM) | ΔLogCFU vs 24 hr [1, 3]: −0.28; Log CFU Mean [1, 3]: 7.46; in vivo synergy with LpxC inhibitors ([1]; P. aeruginosa (ATCC27853), summary): surprising in vivo synergy; drop in CFU relative to vehicle ([1]; each agent at 30 mg/kg): 0.28 log; in vivo synergy with multiple LpxC inhibitors (K. pneumo. (ATCC43816)): surprising in vivo synergy; FICI index (Pseudomonas aeruginosa; listed as rifampin): < 1.0 |
| gentamicin | 0.75 | 0.5 | 0.38 | – | – | – | – |
| teicoplanin | ≦0.37 | ≦0.25 | no effect | 32 µg/mL | > 256 µg/mL | > 256 µg/mL | Fold decrease in MIC (envA+/envA1) (envA1 (D22) E. coli): ≧8 |
